Measurements as given in article PMC10779787, “An Efficient Synthesis of 1-(1,3-Dioxoisoindolin-2-yl)-3-aryl Urea Analogs as Anticancer and Antioxidant Agents: An Insight into Experimental and In Silico Studies” (Molecules, 2023).

Target: EGFR (Homo sapiens, UniProt P00533)
Test: EGFR kinase assay kit (BPS Bioscience), Kinase-Glo MAX luminescence, poly(Glu:Tyr […]) substrate
Assay type: biochemical

EGFR, sequence (P00533 25-1210): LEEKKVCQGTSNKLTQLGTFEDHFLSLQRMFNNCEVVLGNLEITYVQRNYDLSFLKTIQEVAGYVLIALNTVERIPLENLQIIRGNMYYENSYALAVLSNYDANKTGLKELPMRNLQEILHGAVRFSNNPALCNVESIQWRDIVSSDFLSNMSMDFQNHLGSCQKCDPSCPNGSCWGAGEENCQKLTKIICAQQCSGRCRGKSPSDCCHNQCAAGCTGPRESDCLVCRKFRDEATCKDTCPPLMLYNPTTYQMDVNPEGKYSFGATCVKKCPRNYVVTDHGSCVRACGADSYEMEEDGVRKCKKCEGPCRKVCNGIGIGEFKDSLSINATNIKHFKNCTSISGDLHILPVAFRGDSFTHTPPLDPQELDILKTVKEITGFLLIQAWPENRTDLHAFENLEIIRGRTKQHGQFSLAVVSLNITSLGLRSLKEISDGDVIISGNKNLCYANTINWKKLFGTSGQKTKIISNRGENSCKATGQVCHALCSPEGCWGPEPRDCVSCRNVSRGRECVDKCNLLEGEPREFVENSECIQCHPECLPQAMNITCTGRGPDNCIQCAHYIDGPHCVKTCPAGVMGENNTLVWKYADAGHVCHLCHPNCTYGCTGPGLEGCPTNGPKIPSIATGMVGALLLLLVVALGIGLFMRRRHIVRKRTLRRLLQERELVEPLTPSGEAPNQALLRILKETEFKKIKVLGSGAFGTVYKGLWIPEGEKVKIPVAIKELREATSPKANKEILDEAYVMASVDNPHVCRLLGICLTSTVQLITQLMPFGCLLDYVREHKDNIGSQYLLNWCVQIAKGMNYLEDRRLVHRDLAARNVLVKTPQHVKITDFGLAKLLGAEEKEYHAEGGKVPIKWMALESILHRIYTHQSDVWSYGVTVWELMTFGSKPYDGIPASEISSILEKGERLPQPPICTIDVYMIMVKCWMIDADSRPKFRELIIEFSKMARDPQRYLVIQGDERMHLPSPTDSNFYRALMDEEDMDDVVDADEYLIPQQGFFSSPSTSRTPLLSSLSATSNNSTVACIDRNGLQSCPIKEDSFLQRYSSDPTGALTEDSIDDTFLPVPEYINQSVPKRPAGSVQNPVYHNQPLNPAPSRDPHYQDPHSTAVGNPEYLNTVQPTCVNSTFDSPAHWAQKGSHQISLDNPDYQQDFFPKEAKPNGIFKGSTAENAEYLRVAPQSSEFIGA

IC50: 0.0429 ± 0.0008 µM
Compound: O=C(Nc1ccc(Br)cc1)NN1C(=O)c2ccccc2C1=O [7c, 1-(4-Bromophenyl)-3-(1,3-dioxoisoindolin-2-yl)urea]
